# Like-named read-outs stand apart in the source and are kept apart here.
# Assays:
# [1] = system: strains of A. baumannii and one strain of Acinetobacter sp.; assay: MIC with sub-inhibitory concentrations (0.25x MIC) of polymyxin B, panel of Acinetobacter strains (Example 4); assay type: cell-based
# [2] = system: A. baumannii ATCC 19606; assay: MIC without and with sub-inhibitory polymyxin B (Example 4); assay type: cell-based, Acinetobacter baumannii; settings: for MIC without PB/MIC + PB: A. baumannii ATCC 19606; for MIC: Acinetobacter baumannii
# [3] = system: A. baumannii ATCC 19606; assay: Preliminary MBC without and with sub-inhibitory polymyxin B (Example 4); assay type: cell-based, Acinetobacter baumannii; settings: Acinetobacter baumannii
# [4] = system: A. baumannii J2; assay: MIC without and with sub-inhibitory polymyxin B (Example 4); assay type: cell-based, Acinetobacter baumannii; settings: for MIC without PB/MIC + PB: A. baumannii J2; for MIC: Acinetobacter baumannii
# [5] = system: A. baumannii J2; assay: Preliminary MBC without and with sub-inhibitory polymyxin B (Example 4); assay type: cell-based, Acinetobacter baumannii; settings: Acinetobacter baumannii, preliminary MBC
# [6] = system: Acinetobacter sp. (H064200250); assay: MIC without and with sub-inhibitory polymyxin B (Example 4); assay type: cell-based
# [7] = system: Acinetobacter sp. (H064200250); assay: Preliminary MBC without and with sub-inhibitory polymyxin B (Example 4); assay type: cell-based; settings: Acinetobacter, preliminary MBC
# Procedure: (§1) The plates were incubated for 18-20 hours at 37° C. The MBC was read as the lowest concentration at which colony growth was ca. 90% less than the positive control (i.e. usually where single colonies or no colonies were observed).
# [8] = system: A. baumannii A329; assay: MIC without and with sub-inhibitory polymyxin B (Example 4); assay type: cell-based, Acinetobacter baumannii; settings: A. baumannii A329; +0.06 μg/ml PB; 2nd experiment
# [9] = system: A. baumannii A387; assay: as above; assay type: cell-based, Acinetobacter baumannii; settings: for MIC without PB/MIC + PB: A. baumannii A387
# [10] = system: A. baumannii A387; assay: Preliminary MBC without and with sub-inhibitory polymyxin B (Example 4); assay type: cell-based, Acinetobacter baumannii; settings: Acinetobacter baumannii, A387, A. baumannii A387, +0.06 μg/ml PB, 2nd experiment, read-out: MBC
# [11] = system: A. baumannii A14; assay: as above; assay type: cell-based, Acinetobacter baumannii; settings: A. baumannii A14, +0.06 μg/ml PB, 2nd experiment
# Procedure: as §1
# [12] = system: A. baumannii A390; assay: as above; assay type: cell-based, Acinetobacter baumannii; settings: Acinetobacter baumannii, A390, A. baumannii A390, +0.06 μg/ml PB, 2nd experiment, read-out: MBC
# Procedure: as §1
# [13] = system: A. baumannii A473; assay: as above; assay type: cell-based, Acinetobacter baumannii; settings: Acinetobacter baumannii, A473, A. baumannii A473, +0.06 μg/ml PB, 2nd experiment, read-out: MBC
# Procedure: as §1
# [14] = system: A. baumannii NCTC 13301; assay: as above; assay type: cell-based, Acinetobacter baumannii; settings: Acinetobacter baumannii
# Procedure: as §1
# [15] = system: A. baumannii A401; assay: MIC without and with sub-inhibitory polymyxin B (Example 4); assay type: cell-based, Acinetobacter baumannii; settings: A baumannii A 401; ratio, PB 0.06 μg/ml; 1st experiment
# [16] = system: A. baumannii A473; assay: as above; assay type: cell-based, Acinetobacter baumannii
# [17] = system: A. baumannii A489; assay: as above; assay type: cell-based, Acinetobacter baumannii; settings: for MIC without PB/MIC + PB: A. baumannii A489; for MIC: Acinetobacter baumannii
# [18] = system: A. baumannii A489; assay: Preliminary MBC without and with sub-inhibitory polymyxin B (Example 4); assay type: cell-based, Acinetobacter baumannii; settings: Acinetobacter baumannii, preliminary MBC
# [19] = system: A. baumannii NCTC 13301; assay: MIC without and with sub-inhibitory polymyxin B (Example 4); assay type: cell-based, Acinetobacter baumannii
# [20] = system: A. baumannii NCTC 13301; assay: as above; assay type: cell-based, Acinetobacter baumannii; remark: listed apart in the source
# [21] = system: A. baumannii A14; assay: as above; assay type: cell-based, Acinetobacter baumannii; settings: 1st experiment
# [22] = system: A. baumannii A14; assay: Preliminary MBC without and with sub-inhibitory polymyxin B (Example 4); assay type: cell-based, Acinetobacter baumannii; settings: A. baumannii A14; +0.06 μg/ml polymyxin B; preliminary MBC; 1st experiment
# [23] = ratio, PB 0.06 μg/ml, 1st experiment
structure (smiles),measurement,setting,value
"NCC[C@H](O)C(=O)N[C@@H]1C[C@H](N)[C@@H](O[C@H]2O[C@H](CN)[C@@H](O)[C@H](O)[C@H]2O)[C@H](O)[C@H]1O[C@H]1O[C@H](CO)[C@@H](O)[C@H](N)[C@H]1O [Amikacin, reference compound]",Change of activity (MIC) in presence of polymyxin B compared to without polymyxin B,[1],not significantly affected
same,"Range ratios MIC without PB/MIC with PB Oct. 14, 2008 n = 11",[1]; 2nd experiment,1-16
same,MIC without PB/MIC + PB,"[2]; +0.06 μg/ml PB, 2nd experiment",2
same,MIC without PB/MIC + PB,[2]; [23],2
same,MIC,"[2]; ATCC19606, A. baumannii ATCC 19606, +0.06 μg/ml PB, 2nd experiment, read-out: MIC",8 µg/mL
same,MIC,"[2]; ATCC19606, read-out: MIC +0.06 μg/ml PB, A. baumannii ATCC 19606, +0.06 μg/ml polymyxin B, 1st experiment",8 µg/mL
same,MBC,"[3]; ATCC19606, A. baumannii ATCC 19606, +0.06 μg/ml PB, 2nd experiment, read-out: MBC",8 µg/mL
same,MBC,"[3]; ATCC19606, read-out: MBC +0.06 μg/ml PB, A. baumannii ATCC 19606, +0.06 μg/ml polymyxin B, 1st experiment",8 µg/mL
same,MIC without PB/MIC + PB,"[4]; +[…] PB, 2nd experiment",16
same,MIC without PB/MIC + PB,"[4]; ratio, PB […], 1st experiment",8
same,MIC,"[4]; J2, A. baumannii J2, +[…] PB, 2nd experiment, read-out: MIC",0.5 µg/mL
same,MIC,"[4]; J2, read-out: MIC +[…] PB, A. baumannii J2, +[…] polymyxin B, 1st experiment",4 µg/mL
same,MBC,"[5]; J2, A. baumannii J2, +[…] PB, 2nd experiment, read-out: MBC",0.5 µg/mL
same,MBC,"[5]; J2, read-out: MBC +[…] PB, A. baumannii J2, +[…] polymyxin B, 1st experiment",4 µg/mL
same,MIC without PB/MIC + PB,"[6]; Acinetobacter spp. H064200250 (OXA51), +[…] PB, 2nd experiment",8
same,MIC without PB/MIC + PB,"[6]; Acinetobacter spp. H064200250, ratio, PB […], 1st experiment",1
same,MIC,"[6]; Acinetobacter, Acinetobacter spp. H064200250 (OXA51), +[…] PB, 2nd experiment, read-out: MIC",1 µg/mL
same,MBC,"[7]; Acinetobacter spp. H064200250 (OXA51), +[…] PB, 2nd experiment, read-out: MBC",1 µg/mL
same,MBC,"[7]; read-out: MBC +[…] PB, Acinetobacter spp. H064200250, +[…] polymyxin B, 1st experiment",64 µg/mL
same,MIC without PB/MIC + PB,[8],1
same,MIC without PB/MIC + PB,"[9]; +0.06 μg/ml PB, 2nd experiment",≥1
same,MIC without PB/MIC + PB,[9]; [23],≥1
same,MIC,"[9]; Acinetobacter baumannii, A387",128 µg/mL
same,MBC,[10],128 µg/mL
same,MBC,[11],8 µg/mL
same,MBC,[12],64 µg/mL
same,MBC,[13],128 µg/mL
same,MBC,"[14]; NCTC13301, A. baumannii NCTC 13301, +[…] PB, preliminary MBC, 2nd experiment, read-out: MBC",64 µg/mL
same,MBC,"[14]; NCTC13301, read-out: MBC +[…] PB",> 128 µg/mL
same,MIC without PB/MIC + PB,[15],≥1
same,MIC without PB/MIC + PB,"[16]; A. baumannii A473, +0.06 μg/ml PB, 2nd experiment",≥1
same,MIC,"[16]; Acinetobacter baumannii, A473",128 µg/mL
same,MIC without PB/MIC + PB,"[17]; +[…] PB, 2nd experiment",≥2
same,MIC without PB/MIC + PB,"[17]; ratio, PB […], 1st experiment",≥1
same,MIC,"[17]; A489, A. baumannii A489, +[…] PB, 2nd experiment, read-out: MIC",64 µg/mL
same,MIC,"[17]; A489, read-out: MIC +[…] PB, A. baumannii A489, +[…] polymyxin B, 1st experiment",128 µg/mL
same,MBC,"[18]; A489, A. baumannii A489, +[…] PB, 2nd experiment, read-out: MBC",64 µg/mL
same,MBC,"[18]; A489, read-out: MBC +[…] PB, A. baumannii A489, +[…] polymyxin B, 1st experiment",128 µg/mL
same,MIC without PB/MIC + PB,"[19]; A. baumannii NCTC 13301, ratio, PB […], 1st experiment",≥1
same,MIC,"[19]; Acinetobacter baumannii, NCTC13301, read-out: MIC +[…] PB",> 128 µg/mL
same,MIC without PB/MIC + PB,"[20]; A. baumannii NCTC 13301, +[…] PB, 2nd experiment",≥1
same,MIC,"[20]; Acinetobacter baumannii, NCTC13301",128 µg/mL
same,MIC +0.06 μg/ml PB,[21]; +0.06 μg/ml polymyxin B,16 µg/mL
same,MIC without PB/MIC + PB,"[21]; ratio, PB 0.06 μg/ml",2
same,MBC +0.06 μg/ml PB,[22],16 µg/mL
